Data taken from US20230398130A1, “METHODS AND COMPOSITIONS FOR DIFFERENTIATING STEM CELLS” (Massachusetts Institute of Technology, priority 2020, published 2023).
“Also recorded” adds a separate entry of the source.

Legend:
[1] = tested on: ENR-cultured 3D-embedded organoid; test: 384 well-based 3D-embedded organoid screening (ENR, 6 days, FDA approved drug library, 10 μM): Cch-induced lysozyme secretion; format: cell-based, murine
Source text: Leveraging their experience in 2.5D culture organoid screening (Mead, et al., 2020 High-throughput organoid screening enables engineering of intestinal epithelial composition. bioRxiv 2020.04.27.063727; Example 2 and 5), Applicants optimized multiple parameters such as organoid number and density, Matrigel volume, and compound-induced secretion stimulation to detect secreted lysozyme from ENR-cultured 3D-embedded organoid. […] The scheme is shown in FIG. 31; briefly, (1) prepare small organoid fragments by mechanical disruption and culture in ENRCV media for 4 days to grow stem cell-rich organoid, (2) replace media to conventional organoid growth media (ENR) add compounds, and culture for 6 days in total, (3) measure Cch-induced lysozyme secretion and ATP abundance. Based on multiple condition examination results (see FIG. 32 as an example), Applicants concluded that 20 organoids/well and 7 μL Matrigel mixture/well is the reasonable culture condition for 384 well-based screening. Additionally, a Notch signaling inhibitor, DAPT, can be used as a positive control, and stimulating by carbachol helps broaden the window between negative and positive control samples (FIG. 32). Utilizing this newly established platform, Applicants performed 384 well-based high-throughput chemical compound screening, aiming for further identification of PC inducers. […] Applicants prepared duplicates for each sample to increase the reliability and chose a single dose point of drugs (10 μM) to execute the initial screening readily and efficiently while planning to analyze precise dose-responsiveness in the following validation step.
Applicants analyzed all the data by Python 3 as follows. Log 2 transformed lysozyme-derived fluorescent values were calculated; violin plots of negative and positive controls (FIG. 33) and histograms of samples were shown with respect to each assay plate (FIG. 34). […] To evaluate the compound effects, robust Z-scores were calculated based on the negative controls in each plate, and all results were concatenated. […]

[2] = tested on: organoid line; test: Validation and dose optimization of the FDA library hits: lysozyme secretion normalized to ATP abundance; format: cell-based; details: for lysozyme secretion normalized to ATP: 80 nM, different organoid line; for lysozyme secretion compared with KPT-330: in vitro validation, 80-320 nM
Procedure: Applicants next validated the initial screening results by the lysozyme secretion assays at four doses from 80 nM to 10 μM. To evaluate the cell-line dependent effect, Applicants utilized a different organoid line, derived from a different animal. DAPT-treated samples were prepared as positive controls, the same as in the screen. Applicants measured ATP abundance simultaneously as a surrogate of cell number and used it for normalizing lysozyme values. […] To further optimize the dose of each drug, Applicants treated with the three compounds at narrower dose range (80-320 nM) and KPT-330, previously identified PC inducer, for comparison.

[3] = tested on: Paneth cells; test: Immunofluorescent imaging of organoids: LYZ+ cells per organoid area; format: cell-based, murine; details: 160 nM KPT-8602, ENR+CD 3 days
Procedure: Immunofluorescent imaging. For immunofluorescence staining of organoids, intestinal organoids in Matrigel were fixed with 4% paraformaldehyde, then transferred to centrifuge tube. After washing with PBS, the isolated organoids were permeabilized with 1% Triton X followed by incubation with blocking buffer (1% BSA+3% Donkey Serum+0.2% Triton X in PBS) at RT. The organoids were then stained with primary antibodies and fluorescent dye-labeled secondary antibodies as well as with DAPI. Slides were covered with […]® Mounting Media (VECTOR). The following primary and secondary antibodies were used for the staining: rabbit anti-Lysozyme (1:1000, Thermo Fisher Scientific), rat anti-E-cadherin (1:1000, Thermo Fisher Scientific), Alexa Fluor 488 and 568 secondary antibodies (1:1000, Invitrogen). Images were acquired with a confocal laser scanning microscope (Nikon Eclipse 90i). For the analysis of Lysozyme+ cells per organoid area, the number of counted Lysozyme+ cells were normalized to measured organoid surface area. Image J was used for the data analysis.

[4] = tested on: lysozyme (LYZ); test: Western blotting of lysozyme in 3D-cultured intestinal organoids; format: cell-based, murine; details: organoids cultured 6 days in ENR+CV, ENR+CD or ENR
Source text: Western blotting. ISC-enriched organoids cultured in 3D Matrigel with ENRCV media were passaged to 24-well plate in 3D Matrigel with ENRCV. At day zero, media were replaced to ENR or ENRCD with or without indicated compounds, and media were replaced every other day. At day six, cells were harvested from Matrigel by mechanical disruption and suspended in basal media. Cell pellets were lysed with Pierce© IP lysis buffer (ThermoFisher, 87787) containing Halt™ Protease Inhibitor Cocktail, EDTA-Free (ThermoFisher, 87785) after 3-minute centrifuge at 300×g at 4° C. Cell extracts were resolved by NuPAGE© SDS-PAGE Gel system (ThermoFisher) and electroblotted onto polyvinylidene difluoride membranes using Criterion™ Blotter (Biorad). The membranes were blocked with 2% Blotting-Grade Blocker (Biorad, 1706404) in TBS-T (50 mM Tris-HCl, 150 mM NaCl, and 0.1% Tween 20, pH 8.0) and then probed with appropriate antibodies. Detection was performed using ECL Select™ Western Blotting Detection Reagent (Amersham, 45-000-999) and ImageQuant LAS4000 (GE Healthcare).
Western blotting. Organoid-containing gel was homogenized in basal medium and centrifuged at 300 rcf for 3 min. Organoid pellet was lysed with ice-cold Pierce IP Lysis Buffer (Thermo Fisher Scientific, #87787) containing Halt Protease Inhibitor Cocktail, EDTA-Free (Thermo Fisher Scientific, #87785) and incubated on ice for 20 min. The lysate was centrifuged at 17,000 rcf for 10 min, and the supernatant was combined with NuPAGE LDS Sample Buffer (Thermo Fisher Scientific, NP0007). Protein concentration was determined by Pierce 660 nm Protein Assay (Thermo Fisher Scientific, #22660) and normalized to the lowest concentration among each sample set. […] Chemiluminescent signals were detected by LAS4000 (GE Healthcare) using Amersham ECL Select Western Blotting Detection Reagent (GE Healthcare, #45-000-999), and total protein signals were obtained by Odyssey Imaging System (LI-COR Biosciences) using REVERT Total Protein Stain Kit (LI-COR Biosciences, #926-11010).

[5] = tested on: intestinal organoids; test: Population RNA-sequencing of organoids; format: cell-based, murine; details: ENR+CV, ENR+CD or ENR organoids
Procedure: Population RNA-sequencing. Population RNA-seq was performed using a derivative of the Smart-Seq2 protocol for single cells. In brief, organoid media was aspirated and RLT+BME (Qiagen) was added to each well, and plate shaken for 30 minutes to fully lyse. Lysate was aliquoted into 4 identical fractions and stored at −80° C. until reverse transcription. RNA lysate was thawed and cleaned with a 2.2×SPRI ratio using Agencourt RNAClean XP beads (Beckman Coulter, A63987). RNA-seq was performed on a bulk population of […] using Smart-Seq2 chemistry, starting with a 2.2×SPRI ratio cleanup. After oligo-dT priming, Maxima H Minus Reverse Transcriptase (ThermoFisher EP0753) was used to synthesize cDNA with an elongation step at 52° C. before PCR amplification (15 cycles for tissue, 18 cycles for sorted basal cells) using KAPA HiFi PCR Mastermix (Kapa Biosystems KK2602). Sequencing libraries were prepared using the Nextera XT DNA tagmentation kit (Illumina FC-131-1096) with 250 pg input for each sample. Libraries were pooled post-Nextera and cleaned using Agencourt AMPure SPRI beads with successive 0.7× and 0.8× ratio SPRIs and sequenced with an Illumina 75 Cycle NextSeq500/550v2 kit (Illumina FC-404-2005) with loading density at 2.2 pM, with paired end 35 cycle read structure. Samples were sequenced at an average read depth of 8.44 million reads per sample and a total of 96 samples.
Organoid samples were aligned to the Mm10 genome and transcriptome using STAR and RSEM. […] For module scoring with the in vivo Paneth and enteroendocrine cell-defining genes, Applicants used previously published gene sets and computed persample module scores through the Seurat package.

[6] = tested on: Paneth cells; test: Flow cytometry of 3D-cultured intestinal organoids (ENR+CD, 6 days): Paneth cell fraction (lysozyme-positive, CD24-mid); format: cell-based, murine; details: 160 nM KPT-8602, ENR+CD 6 days
Procedure: Flow cytometry analysis (3D culture). ISC-enriched organoids cultured in 3D Matrigel with ENRCV media were passaged to 24-well plate in 3D Matrigel with ENRCV. At day zero, media were replaced to ENRCD with or without indicated compounds, and media were replaced every other day. […] Flow cytometry was performed using an LSR Fortessa (BD; Koch Institute Flow Cytometry Core at MIT). The data were analyzed using FlowJo v10 software.
Single live cells were selected by several gating strategies and Paneth cells were identified as lysozyme-high, CD24-mid, side scatter-high (SSC-high) (FIG. 27E). […] To evaluate whether the culture media supplements C and D may alter the effects of the 6 hits, Applicants also performed lysozyme assay in the canonical ENR culture condition in 3-D (because Paneth cells exist in an immature state within ENR, Applicants were unable to robustly quantify Paneth cell number via flow cytometry).
(§1) Flow cytometry. ISC-enriched organoids in 3D Matrigel culture were passaged to a 48-well plate and induced differentiation for 6 days by ENR+CD media containing DMSO or each drug indicated in the figures. DMSO- or drug-containing media were changed every other day. […] After vigorous pipetting and incubation at 37° C. for 15 min, the cell solution was diluted twice with basal media and centrifuged at 300 rcf for 3 min. […] The cell solution was centrifuged again at 300 rcf for 3 min at 4° C. to pellet the cells. […] Cells were centrifuged again for 3 min at 300 rcf and blocked with staining buffer (FACS buffer containing 0.5% Tween20 (Sigma, P2287)) for 15 min at RT in the dark. […] Flow cytometry was performed using an LSR Fortessa (BD; Koch Institute Flow Cytometry Core at MIT). Flow cytometry data were analyzed using FlowJo X v10.6.1 software.
Live Paneth cells were identified as LYZ-high, CD24-mid, side scatter-high (SSC-high) (FIG. 50F).
as §1, with “organoids in 3-D Matrigel culture” for “organoids in 3D Matrigel culture”, “to a 24- or 48-well plate” for “to a 48-well plate”

SMILES | effect on Cch-induced lysozyme secretion (hit identification) [1] | lysozyme secretion normalized to ATP [2] | lysozyme secretion compared with KPT-330 [2] | proportion of Paneth cells (IF imaging) [3] | LYZ abundance per unit protein (Western blotting) [4] | secretory cell identity (Paneth, goblet, EEC) from bulk transcripts [5] | Paneth cell proportion in organoids [6]
Nc1ncn([C@H]2C[C@H](O)[C@@H](CO)O2)c(=O)n1 [Decitabine, 5-aza-2′-deoxycytidine] | identified as Paneth cell activators | effects were validated | outperformed KPT-330 |  |  |  | 
C=C1/C(=C\C=C2/CCC[C@]3(C)[C@@H]([C@H](C)/C=C/[C@@H](O)C4CC4)CC[C@@H]23)C[C@@H](O)C[C@@H]1O [Calcipotriene] | identified as Paneth cell activators | effects were validated | outperformed KPT-330 |  |  |  | 
Nc1nc2nc[nH]c2c(=S)[nH]1 [Thioguanine] | identified as Paneth cell activators | effects were validated | outperformed KPT-330 |  |  |  | 
NC(=O)/C(=C/n1cnc(-c2cc(C(F)(F)F)cc(C(F)(F)F)c2)n1)c1cncnc1 [KPT-8602] |  |  |  | increasing the proportion of Paneth cells | appreciably increase LYZ abundance | increase secretory cells (Paneth, goblet, and EEC) | statistically significant increases in Paneth cell representation; also recorded: increased the proportion of PC; also recorded: increasing the proportion of Paneth cells
